Key:
[1] = target: T1, Ras farnesyl transferase (Rattus norvegicus, UniProt Q02293+Q04631); assay: in vivo (cellular) Ras farnesyl transferase inhibitory activity, Rat2 cells transformed with H-Ras fused with polybasic lysine domain of K-Ras; assay type: cell-based
T1 construct: endogenous in cells; host or cells: Rat2 fibroblasts transformed with C-Harvey-Ras, or with H-Ras carrying the K-Ras C-terminal polybasic lysine domain
Description: (§1) In the present experiment, Rat2 cell line which expresses C-Harvey-Ras protein having transforming activity and Rat2 cell line(Korean patent application No. 97-14409) which is transformed with fused protein of H-Ras substituted with polybasic lysine domain at C-terminus of K-Ras were used. The experiment was performed by the modified Declue's method(Declue. J. E. et al., Cancer Research, 1991, 51, 712). Hereinafter, the experimental method will be described in more detail.
(§2) 3×10^5 cells of transformed Rat2 fibroblast cell line were sprayed on 60 mm cell cultivation dish and cultivated for 48 hours in a cell incubator at 37° C. and after 50% or more of density was reached, it was treated with the test compounds. The compound according to the present invention dissolved in dimethylsulfoxide(DMSO) was used. 1% concentration of dimethylsulfoxide was used in both control and test groups. After 4 hours from the treatment with the compound, methionine labeled with 150 μCi of radioactive isotope [^35S] per 1 ml of medium was added and after cultivating for 20 hours, the cells were washed with physiological saline water. The cells were lysed using 1 ml of cold cell lysis buffer solution(50 mM of Sodium HEPES buffer solution containing 5 mM of magnesium chloride, 1 mM of DTT, 1% NP 40, 1 mM of EDTA, 1 mM of PMSF, 2 μM of leupeptin, 2 μM of pepstatin A and 2 μM of antipain) and the supernatant wherein the cells were lysed was obtained by high-velocity centrifugation of 12,000 g×5 minutes. The amount of radioisotope in the supernatant was measured and standardized to obtain a quantitative result in immunoprecipitation reaction and then, Y13-259, a monoclonal antiboby specifically binding to Ras protein(Furth, M. E. et al., J. Virol, 1982, 43, 294) was added and reacted for 15 hours at 4° C. Protein A(combined with goat anti-murine imunoglobulin antibody)-agarose suspension was added to the solution and reacted for 1 hour at 4° C. and then, to remove the unspecific binding product, immunoprecipitates were washed with a buffer solution (50 mM Tris chloride buffer solution containing 50 mM of sodium chloride, 0.5% of sodium dioxycholate, 0.5% of NP 40 and 0.1% of SDS). The precipitates were added to a buffer solution for electrophoresis and boiled and then, electrophoresis was performed using 13.5% of SDS polyacrylamide gel. After electrophoresis, the gel was fixed and dried. Then, the gel was exposed to X-ray film, developed and printed. From the result of the experiment, intensities of band of protein combined with or without farnesyl of Ras protein were measured, and the concentration of the test compound inhibiting 50% of farnesyl binding was defined as CIC50, an in vivo Ras farnesyl transferase inhibitory activity.

[2] = target: T2, Ras farnesyl transferase (Homo sapiens, UniProt P49354+P49356); assay: in vitro inhibitory activity for Ras farnesyl transferase, H-Ras substrate; assay type: biochemical
T2 construct: made in house
Description: (§3) In the present experiment, Ras farnesyl transferase produced by genetic recombination techniques according to the improved Pompliano's method (Pompliano et al., Biochemistry, 1992, 31, 3800) was used, and Ras substrate(Ras-CVLS) protein described in Korean Patent Appln. No. 97-14409 was used after it has been purified according to the known method(see, Chung et al., Biochimica et Biophysica Acta, 1992, 278, 1129).
(§4) The enzyme reaction was performed in 50 μl of 50 mM Soduam HEPES buffer solution containing 25 mM of potassium chloride, 25 mM of magnesium chloride, 10 mM of DTT and 50 μM of zinc chloride. 1.5 μM of Ras substrate protein, 0.15 μM of tritium-farnesylpyrophosphate and 4.5 nM of farnesyl transferase were used.
(§5) More specifically, in the initial step, farnesyl transferase was added to the above buffer solution, reaction was maintained for 30 minutes at 37° C. and then the reaction was stopped by adding 1 ml of ethanol solution containing 1M HCl. The formed precipitates were adsorbed to GF/B filter using Hopper harvestor(Hopper #FH 225V) for filter-binding, washed with ethanol, and then radioactivity of the dried filter was measured using LKB β counter. Enzyme titer was measured in the unsaturated state of substrate where the concentrations of Ras substrate protein and farnesyl transferase have quantitative relationship. The compound according to the present invention dissolved in dimethyl sulfoxide(DMSO) was added to the reaction solution in an amount of less than 5% of the total reaction solution, and then the enzyme inhibitory activity thereof was measured. The enzyme inhibitory activity was represented by percentage of the amount of farnesyl incorporated into the Ras substrate protein in the presence of the test compound to that in the absence of the test compound. IC50 of the test compound was defined as the concentration at which 50% of the enzyme activity was inhibited.

[3] = target: T1, Ras farnesyl transferase; assay: in vivo (cellular) Ras farnesyl transferase inhibitory activity, Rat2 cells expressing C-Harvey-Ras; assay type: cell-based
Description: as §1, §2

[4] = target: T2, Ras farnesyl transferase; assay: in vitro inhibitory activity for Ras farnesyl transferase, K-Ras substrate; assay type: biochemical
Description: as §3, with “and Ras substrate(Ras-CVLS) protein described in Korean Patent” left out
as §4, §5

[5] = Rat2 cell line transformed with H-Ras substituted with polybasic lysine domain at C-terminus of K-Ras, concentration inhibiting 50% of farnesyl binding, read-out: K-Ras CIC50
[6] = recombinant Ras farnesyl transferase, H-Ras substrate, tritium-farnesylpyrophosphate, 30 minutes at 37° C., read-out: H-Ras IC50
[7] = Rat2 cell line expressing C-Harvey-Ras, concentration inhibiting 50% of farnesyl binding of Ras protein, read-out: H-Ras CIC50
[8] = recombinant Ras farnesyl transferase, K-Ras substrate, read-out: K-Ras IC50

| SMILES | IC50 [1, 5] | IC50 [2, 6] | IC50 [3, 7] | IC50 [4, 8] | IC50 [1] | IC50 [2] | IC50 [3] | IC50 [4] |
| --- | --- | --- | --- | --- | --- | --- | --- | --- |
| COCCN(C)C(=O)c1cn(Cc2cncn2CC2CCN(C(=O)OCC(C)C)CC2)cc1-c1cccc2ccccc12 [Compound 35, 1-[1-(1-Isobutoxycarbonyl-piperidin-4-ylmethyl)-1H-imidazol-5-ylmethyl]-3-[N-(2-methoxyethyl)-N-methyl]carbamoyl-4-(naphthalen-1-yl)-1H-pyrrole] | 1000 to 10000 nM | 6 nM | 10 to 100 nM | 10 to 100 nM | – | – | – | – |
| O=C(c1ccn(Cc2cncn2CC2CCN(C(=O)OCc3ccccc3)CC2)c1)c1cccc2ccccc12 [Compound 36, 1-{1-[1-(Benzyloxycarbonyl)piperidin-4-yl]methyl-1H-imidazol-5-yl}methyl-3-(naphthalen-1-yl)carbonyl-1H-pyrrole] | – | – | – | – | 50000 nM | 200 nM | 10000 nM | > 100000 nM |
| CC(=O)N1CCC(Cn2cncc2Cn2ccc(C(=O)c3cccc4ccccc34)c2)CC1 [Compound 37, 1-[1-(1-Acetylpiperidin-4-yl)methyl-1H-imidazol-5-yl]methyl-3-(naphthalen-1-yl)carbonyl-1H-pyrrole] | – | – | – | – | 10000 to 50000 nM | 350 nM | 1000 to 10000 nM | 10000 to 100000 nM |
| CN1CCN(C(=O)c2cn(Cc3cncn3CC3CCN(C(=O)OCc4ccccc4)CC3)cc2-c2cccc3ccccc23)CC1 [Compound 38, 1-[1-(1-Benzyloxycarbonylpiperidin-4-yl)methyl-1H-imidazol-5-yl]methyl-3-(4-methylpiperazin-1-yl)carbonyl-4-(naphthalen-1-yl)-1H-pyrrole] | 2500 nM | 3.8 nM | 12.5 nM | 15 nM | – | – | – | – |
| CN(C)CCN(C)C(=O)c1cn(Cc2cncn2CC2CCN(C(=O)OCc3ccccc3)CC2)cc1-c1cccc2ccccc12 [Compound 39, 1-[1-(-Benzyloxycarbonylpiperidin-4-yl)methyl-1H-imidazol-5-yl]methyl-3-{N-[2-(N,N-dimethylamino)ethyl]-N-methyl}carbamoyl-4-(naphthalen-1-yl)-1H-pyrrole] | 30000 to 100000 nM | 300 nM | 1000 nM | 1500 nM | – | – | – | – |
| COC(=O)N1CCC(Cn2cncc2Cn2cc(C(=O)N3CCN(C)CC3)c(-c3cccc4ccccc34)c2)CC1 [Compound 40, 1-[1-(1-Methoxycarbonylpiperidin-4-yl)methyl-1H-imidazol-5-yl]methyl-3-(4-methylpiperazin-1-yl)carbonyl-4-(naphthalen-1-yl)1H-pyrrole] | 10000 to 50000 nM | 1.6 nM | 30 nM | 4.2 nM | – | – | – | – |
| CN1CCN(C(=O)c2cn(Cc3cncn3CC3CCN(S(C)(=O)=O)CC3)cc2-c2cccc3ccccc23)CC1 [Compound 41, 3-(4-Methylpiperazin-1-yl)carbonyl-1-[1-(1-methylsulfonylpiperidin-4-yl)methyl-1H-imidazol-5-yl]methyl-4-(naphthalen-1-yl)-1H-pyrrole] | 10000 to 50000 nM | 3 nM | 50 nM | 10 nM | – | – | – | – |
| CC(=O)N1CCC(Cn2cncc2Cn2cc(C(=O)N3CCN(C)CC3)c(-c3cccc4ccccc34)c2)CC1 [Compound 42, 1-[1-(1-Acetylpiperidin-4-yl)methyl-1H-imidazol-5-yl]methyl-3-(4-methylpiperazin-1-yl)carbonyl-4-(naphthalen-1-yl)-1H-pyrrole] | 10000 to 50000 nM | 1.2 nM | 25 nM | 6 nM | – | – | – | – |
| CN1CCN(C(=O)c2cn(Cc3cncn3CC3CCN(C(=O)CCc4ccccc4)CC3)cc2-c2cccc3ccccc23)CC1 [Compound 43, 3-(4-Methylpiperazin-1-yl)carbonyl-4-(naphthalen-1-yl)-1-{1-[1-(2-phenylethylcarbonyl)-piperidin-4-yl]methyl-1H-imidazol-5-yl}methyl-1H-pyrrole] | 10000 to 50000 nM | 2 nM | 50 nM | 10 nM | – | – | – | – |
| CN1CCN(C(=O)c2cn(Cc3cncn3CC3CCN(C(=O)COc4ccccc4)CC3)cc2-c2cccc3ccccc23)CC1 [Compound 44, 3-(4-Methylpiperazin-1-yl)carbonyl-4-(naphthalen-1-yl)-1-[1-(1-phenoxyacetylpiperidin-4-yl)methyl-1H-imidazol-5-yl]methyl-1H-pyrrole] | 10000 to 50000 nM | 2 nM | 50 nM | 11 nM | – | – | – | – |
| CN1CCN(C(=O)c2cn(Cc3cncn3CC3CCN(C(=O)OCc4ccc5ccccc5c4)CC3)cc2-c2cccc3ccccc23)CC1 [Compound 45, 3-(4-Methylpiperazin-1-yl)carbonyl-4-(naphthalen-1-yl)-1-{1-[1-(naphthalen-2-ylmethyloxy)carbonylpiperidin-4-yl]methyl-1H-imidazol-5-yl}methyl-1H-pyrrole] | 10000 nM | 1.8 nM | 35 nM | 12 nM | – | – | – | – |
| CC(C)CCOC(=O)N1CCC(Cn2cncc2Cn2cc(C(=O)N3CCN(C)CC3)c(-c3cccc4ccccc34)c2)CC1 [Compound 46] | 10000 to 50000 nM | 2.2 nM | 25 nM | 16 nM | – | – | – | – |
| CN1CCN(C(=O)c2cn(Cc3cncn3CC3CCN(C(=O)OCc4ccc(F)cc4)CC3)cc2-c2cccc3ccccc23)CC1 [Compound 47] | 4000 nM | 3.3 nM | 12.5 nM | 6 nM | – | – | – | – |
| CN1CCN(C(=O)c2cn(Cc3cncn3CC3CCN(C(=O)OC/C=C/c4ccccc4)CC3)cc2-c2cccc3ccccc23)CC1 [Compound 48] | 1000 nM | 3.3 nM | 12.5 nM | 7 nM | – | – | – | – |
| CN1CCN(C(=O)c2cn(Cc3cncn3CC3CCN(C(=O)c4ccc5ccccc5c4)CC3)cc2-c2cccc3ccccc23)CC1 [Compound 49] | 10000 nM | 1.8 nM | 350 nM | 12 nM | – | – | – | – |
| CN1CCN(C(=O)c2cn(Cc3cncn3CC3CCN(C(=O)/C=C/c4ccccc4)CC3)cc2-c2cccc3ccccc23)CC1 [Compound 50] | 10000 to 50000 nM | 1.7 nM | 30 nM | 8 nM | – | – | – | – |
| CC(C)c1nc(C(=O)N2CCC(Cn3cncc3Cn3cc(C(=O)N4CCN(C)CC4)c(-c4cccc5ccccc45)c3)CC2)cs1 [Compound 51] | 10000 to 50000 nM | 3 nM | 5 nM | 10 nM | – | – | – | – |

— patent US6436960B1, “Farnesyl transferase inhibitors having a piperidine structure and process for preparation thereof” (LG Chemical Ltd., priority 1998, dated 2002)
